Assay results: a melting point compilation (Tetko et al.; mined from patent text by program, amines drawn as free bases though some values may be those of a salt)

Row | Structure (SMILES) | melting point
1 | COC(=O)NC1=NCC(c2ccc(F)cc2)N1C (stereo not given) | 153 to 155 °C
2 | Cc1c(C)c2c(c(C)c1O)C(O)CC(C)(COc1ccc(CC3SC(=O)NC3=O)cc1)O2 (stereo not given) | 102 to 118 °C
3 | CC(C)(C)OC(=O)N1CCCCc2ccc(Cl)nc21 | 166 to 168 °C
4 | CON=C(C(C)=NN)c1ccccc1 | 132 °C
5 | CS(=O)(=O)c1ccc(C(CC2CCCC2)C(=O)O)cc1 (stereo not given) | 152 to 154 °C
6 | CCN1CCc2ccc(Nc3ncc(Cl)c(NCCC(=O)NC)n3)cc2CC1 | 206 °C
7 | O=C(NC1CCCCC1)NC1(N=NC2(NC(=O)NC3CCCCC3)CCCCC2)CCCCC1 | 105 to 109 °C
8 | O=[N+]([O-])c1cccc(C(Cl)=NN=C(Cl)c2ccc(C(F)(F)F)cc2)c1 | 78 to 80 °C
9 | CN(C)C(=S)N1C=CC=NC1N (stereo not given) | 134 to 136 °C
10 | Cc1nc(N=CN(C)C)sc1C | 47 to 58 °C
11 | COc1ncnc(-c2cc(NS(C)(=O)=O)c(C#N)cc2F)c1C | 218 to 220 °C
12 | O=[N+]([O-])c1cc(Cl)ccc1/C=C/c1ccc(Cl)cc1[N+](=O)[O-] | 247 to 248 °C
13 | CC(C)(C)OC(=O)CCC1(C(=O)O)CCCC1 | 78 to 81 °C
14 | Fc1ccc(N2CCN(Cc3c[nH]c4ncccc34)CC2)cc1 | 214 to 216 °C
15 | Cc1c([N+](=O)[O-])ccc2c1ccn2C | 120 to 123 °C
16 | CCc1nc2c(N3CCOCC3)ncn(CC)c-2n1 | 103 to 107 °C
17 | O=C(O)c1cc(CC(C(=O)O)C(=O)O)c2ccccn2c1=O | > 250 °C
18 | CCCCOc1cc(OCCCc2cn(-c3ccc(C(F)(F)F)cn3)nc2OCC)ccc1CCC(=O)O | 123 to 124 °C
19 | CC(=NOCCC(=O)O)c1ccc(Cl)cc1 | 80 to 83 °C
20 | O=C(CNC(=O)OCc1ccc([N+](=O)[O-])cc1)Oc1ccc(C(=O)OCI)cc1 | 146 to 148 °C
21 | COC(=O)CCc1ncc2c(c1C(=O)OC)CCO2 | 80 to 81 °C
22 | O=C(O)C1CN(S(=O)(=O)c2ccc3cc(Cl)ccc3c2)CCN1C(=O)C1CCN(c2ccncc2)CC1 (stereo not given) | 215 to 220 °C
23 | Cc1cc2c(cc1C)SC(C(F)(F)F)C(C(=O)O)=C2 (stereo not given) | 235 to 237 °C
24 | COC1=C(c2ccc(C)cc2C)C(=O)CCC1 | 122 to 123 °C
25 | COc1cc(Cc2cnc(N)nc2N)cc(OC)c1CN | 176 to 178 °C

Row | Structure (SMILES) | melting point
26 | NC(=NCC(F)(F)F)Nc1ccnc(CCCCNC(=S)NCC(F)(F)F)n1 | 142 to 145 °C
27 | Clc1ccc(Nc2nnc(Cc3ccncc3)c3c2CCCC3)cc1 | 258 to 261 °C
28 | Cc1cc(C)nc(NC(=O)NS(=O)(=O)c2cc(Cl)sc2Cl)n1 | 192 to 194 °C
29 | O=C(c1cn(C(c2ccccc2)(c2ccccc2)c2ccccc2)cn1)c1cc(Cl)cc2c1OCOC2 | 175 to 182 °C
30 | CC1(CCl)Oc2ccc([N+](=O)[O-])cc2O1 (stereo not given) | 72 to 73 °C
31 | CC(=O)c1cc2c(s1)SCCN(CCCCCl)C2=O | 132 to 134 °C
32 | CN(CCCOc1ccc(OC(F)(F)F)cc1)C1CCN(c2ccc(OC[C@@]3(C)Cn4cc([N+](=O)[O-])nc4O3)cc2)CC1 | 167 to 170 °C
33 | COc1ccc(N2CCOCC2)c2sc(C(=O)NC3CCN(C(=O)OC(C)(C)C)CCC3O)nc12 (stereo not given) | 71 to 73 °C
34 | CN(C)S(=O)(=O)N1CCN(C(=O)c2ccc(Nc3ccnc4cc(C(F)(F)F)ccc34)cc2)CC1 | 223 to 224 °C
35 | CNc1cc(C(O)CS(C)(=O)=O)cc(N(C)C(C)=O)c1C (stereo not given) | 191 to 192 °C
36 | CCOCCN(C(=O)Nc1ccc(C(=O)O)cc1)c1ccc2c(c1)C(C)(C)CCC2(C)C | 82 to 85 °C
37 | NC(CCNc1ccc(C(O)(C(F)(F)F)C(F)(F)F)cc1)c1ccc(F)cc1 (stereo not given) | 136 to 137 °C
38 | O=C(O)COC1=C(C(=O)Nc2cc(Cl)cc(Cl)c2)SC2=NCCCN21 | 247 °C
39 | O=c1cc(-c2ccc(OCCOCCOc3ccc(-c4cc(=O)c5c(O)cc(O)cc5o4)cc3)cc2)oc2cc(O)cc(O)c12 | 268 to 270 °C
40 | O=C(CCc1ccc(Cl)cc1)Cn1ccnc1 | 172 to 174 °C
41 | CCCC(=O)C1=C(O)CC(c2cc(C3CCCO3)no2)CC1=O (stereo not given) | 102 to 104 °C
42 | NC(=S)c1nccn1Cc1cccs1 | 152 to 153 °C
43 | CCOC(=O)c1c(Cl)nn(C)c1S(=O)(=O)NC(=O)OC | 107 to 110 °C
44 | CCOC(=O)CS(=O)(=O)C=C1SC=CS1 | 134 to 136 °C
45 | N=C(N)NCCC[C@@H](NC(=O)C(c1ccccc1)c1ccccc1)C(=O)NCc1ccc(CCC(N)=O)cc1 | 207 to 208 °C
46 | O=C1CCC(c2ccccc2)(c2ccccc2)C2CN(C(Cc3ccccc3)=NCc3ccco3)CC12 (stereo not given) | 128 °C
47 | N#Cc1cc2c3c(cccc3c1N1CCCCC1)C(=O)N(O)C2=O | > 250 °C
48 | CC(C)=C(C#N)C(=O)NCc1ccc(Cl)c(Cl)c1 | 131 to 132 °C
49 | CCC(=NNC(=O)C1CC1C)c1cccnc1 (stereo not given) | 137 °C

Results, then the compound that gave them:

Row | melting point | Structure (SMILES)
50 | 169 to 171 °C | CCc1nc2ccccn2c1S(N)(=O)=S (stereo not given)
51 | 185 to 187 °C | O=C1[C@H]2CCC[C@H]2N(C(=O)CNS(=O)(=O)c2ccccc2)c2ccccc2N1Cc1ccccc1 (relative stereo)
52 | 122 °C | CCOC(=O)Nc1ccc(OCc2ccc(Cl)cc2)cc1[N+](=O)[O-]
53 | 179 to 180 °C | CC1Cc2ccccc2N1c1nc(=O)c2cccnc2s1 (stereo not given)
54 | 125 to 126 °C | COc1cc2c(cc1OCc1ccccc1)CCN(C(C)=O)C2
55 | 72 to 75 °C | FC(F)(c1ccccc1)C(F)(F)c1cccc(Br)c1
56 | 76 to 78 °C | COP(=O)(CC(=O)[C@H](Cc1ccccc1)NC(=O)OC(C)(C)C)OC
57 | 145 to 147 °C | COc1ccccc1[C@H](c1cccc2ccccc12)[C@@](C)(C#N)C(=O)N1CCN(c2ccccc2Cl)CC1
58 | 166 to 196 °C | N#CCCNC(=O)c1cccc(-c2ccc3c(c2)N(c2ccc(Cl)c(Cl)c2)CC3)c1
59 | 137 to 139 °C | CCOC(=O)c1cccc2c(=O)c(C)c(-c3ccc(OC)cc3)oc12
60 | 150 to 151 °C | N#CC1Sc2ccccc2N1C(=O)c1ccc(F)cc1 (stereo not given)
61 | 141 to 142 °C | CC(C)(C)COc1cccc(C[C@H]2NC(=O)O[C@H]2c2cccc(Cl)c2)c1 (racemic)
62 | 236 to 239 °C | O=C(O)CN1C(=O)C(=Cc2ccc(OCc3ccc(F)cc3F)c(OCc3ccccc3)c2)SC1=S
63 | 286 to 289 °C | Cn1c(=O)[nH]c2cnc(-c3ccccc3)nc21
64 | 123 to 125 °C | COc1ccc2c(c1)c(CC(=O)OCCNC(=O)c1cccnc1)c(C)n2C(=O)c1ccc(Cl)cc1
65 | 112 to 114 °C | Cc1cc(-c2cc(C(F)(F)F)nn2-c2ccc(S(C)(=O)=O)c(F)c2)ccc1-c1cscn1
66 | 100 to 102 °C | C=CCOc1cc(F)c(C#N)c(OC(C(=O)OC)c2ccccc2C)c1 (racemic)
67 | 107 to 109 °C | CC(C)N(Cc1ccccc1)CC(O)COc1cccc2[nH]cc(C=O)c12 (stereo not given)
68 | 156 to 157 °C | CCOC(=O)c1cc2ccc(Cl)c(N(C)S(=O)(=O)c3cccs3)c2[nH]1
69 | 78 to 80 °C | CC(C)c1nc(C(C)(C)C)cc(-c2ccc(F)cc2)c1C=CI
70 | > 230 °C | COc1ccc(COc2cnc3c(S)cccn3c2=O)cc1
71 | 149 to 150 °C | CCCc1c(OCCCSc2nc3ccccc3[nH]2)ccc(C(C)=O)c1O
72 | 82 °C | CCOC(=O)c1sc(-c2ccc(C(F)(F)F)cc2)nc1COC(C)=O
73 | 63 to 66 °C | COc1nc(OC)nc(OC(C(=O)OCc2ccccc2)C(C)(C)C)n1 (stereo not given)
74 | 210 to 214 °C | Cc1c(-c2ccc(OCC3CC3)cc2)nc2n(Cc3c(F)cccc3F)cc(-c3ccccc3)c(=O)n12
75 | 188 to 190 °C | CCOC(=O)c1ccc2nc3ccsc3c(=O)n2c1

Row | melting point | Structure (SMILES)
76 | 122 to 124 °C | CN(C=O)C1c2ccccc2CCc2cc(Cl)ccc21 (stereo not given)
77 | 173 to 175 °C | CC(C)n1nc(-c2c(OC3CCCCC3)nc(N)nc2-c2ccccc2)ccc1=O
78 | 112 to 115 °C | CCOC(=O)CN(Cc1ccccc1)c1ncnc2c(N3CCOCC3)nc(N3CCC(N(C)C)CC3)nc12
79 | 145 to 146 °C | CCN1CCN2C1=Nc1ccc(Cl)cc1C2c1ccccc1 (stereo not given)
80 | 67 to 70 °C | COc1cc(C(=O)N2CCN(C(=O)CNC3CCN(Cc4ccccc4)CC3)C(c3ccc(Cl)c(Cl)c3)C2)cc(OC)c1OC (racemic)
81 | 197 to 199 °C | Nc1c2c(nc3ccccc13)C1CCC2CC1
82 | 123 to 124 °C | COc1ccc(Nc2ccn(C(C)=O)n2)cc1
83 | 100 to 102 °C | O=C(O)Cc1ccn(-c2ccc(F)cc2)c1
84 | 108 to 111 °C | CCc1cn(C(C)(C)C(=O)N(C)C)nc1-c1ccccc1
85 | 171 to 172 °C | Cn1c(-c2ccccc2)c(C2=CCC(C(=O)O)CC2)c2ccccc21 (stereo not given)
86 | 124 to 127 °C | O=C1NC(=O)C(Cc2ccc(OCCON=Cc3ccc(-c4ccccc4)cc3)cc2)S1 (stereo not given)
87 | 180 to 181 °C | O=C(Cc1ccc(-c2cccc(F)c2)cc1)Nc1n[nH]c2c1CCC2
88 | 181 to 183 °C | O=C(O)n1ccc2c(OCc3ccccc3)c(Cc3ccccc3)ccc21
89 | 57.5 to 58.5 °C | CCCCCCCCCCCC(=O)N1c2ccccc2C(=O)N(C(C)C)S1(=O)=O
90 | 98 to 100 °C | CC(C)C1(c2ccccc2OCCCCBr)C(=O)N(C)c2ccccc21 (stereo not given)
91 | 170 to 172 °C | CCOc1ccc(-c2noc3c(Cl)c(O)ccc23)c(F)c1
92 | 298 to 301 °C | CC(O)CNc1nc(C2C(=O)Nc3ccc(Br)cc32)c2cn(C)nc2n1 (stereo not given)
93 | 87 to 89 °C | CCC(NC(=O)c1sc(NC(=O)c2ccccc2)nc1C)c1ccccc1 (stereo not given)
94 | > 250 °C | CC(C)n1nc(-c2[nH]c(=O)c(N)nc2-c2ccccc2)ccc1=O
95 | 263 to 264 °C | c1ccc(Nc2ncnc3[nH]nc(Nc4ccccc4)c23)cc1
96 | 95 to 96.5 °C | O=C(O)Cc1cc(Cl)ccc1OCCCc1ccccc1
97 | 108 °C | Clc1c(CBr)c(CBr)cc2ccccc12
98 | 104 to 105 °C | COc1ccc(CNc2ccccc2C)cc1O
99 | 95 to 96 °C | CCOc1nn(Cc2ccc(OCc3cccc(-c4ccccc4)n3)cc2)cc1CCC(=O)O
100 | 164 °C | Clc1cccnc1-c1ccc2[nH]nc(Nc3ccccn3)c2c1
